The values below come from article PMC12209990, “Effect of Cytochrome P450 3A Inhibition and Induction by Itraconazole and Rifampin on Tazemetostat Pharmacokinetics in Patients With Advanced Malignancies” (Clinical Pharmacology in Drug Development, 2025).

A short description of data set [1]: Safety (TEAEs) Part 1: tazemetostat coadministered with itraconazole. The following applies: human, in vivo. On the procedure: Part 1 of the study evaluated the DDI between tazemetostat and itraconazole. On the mornings of Days 1 and 15, patients received a single dose of tazemetostat 400 mg orally. On Days 3‐14, patients received tazemetostat 400 mg twice daily (morning and evening). On Days 18‐20, patients received itraconazole 200 mg orally once daily in the morning. On Days 21‐35, tazemetostat 400 mg twice daily was coadministered in the morning with a single dose of itraconazole 200 mg. On Day 36, patients received a single dose of tazemetostat 400 mg coadministered in the morning with a single dose of itraconazole 200 mg. On Days 37 and 38, patients received a single dose of itraconazole 200 mg (Figure 1A). Throughout Part 1, administration of itraconazole occurred 1 hour after a meal.
(§1) Safety was assessed by monitoring treatment‐emergent adverse events (TEAEs) and vital signs, electrocardiography, and clinical laboratory tests. TEAEs were defined as adverse events that started or worsened in severity on or after the date of the first dose of the study drug through 30 days after the last dose. Treatment‐related TEAEs were summarized by each study drug for both study parts. Adverse events were coded using the Medical Dictionary for Regulatory Activities Version 23.1 and graded per Common Terminology Criteria for Adverse Events Version 5.0.

The nature of data set [2]: Safety (TEAEs) Part 2: tazemetostat coadministered with rifampin. The conditions noted are these: human, in vivo. On the procedure: Part 2 of the study evaluated the DDI between tazemetostat and rifampin. On the mornings of Days 1 and 15, patients received a single dose of tazemetostat 800 mg orally. On Days 3‐14, patients received tazemetostat 800 mg twice daily. On Days 17‐23, patients received tazemetostat 800 mg twice daily, coadministered in the morning with a single dose of rifampin 600 mg orally. On the morning of Day 24, patients received a single dose of tazemetostat 800 mg coadministered with rifampin 600 mg. On the morning of Day 25, patients received rifampin 600 mg (Figure 1B). Throughout Part 2, administration of rifampin occurred 1 hour before a meal.
as §1

Molecules are shown by their SMILES.

Turning to `CCC(C)n1ncn(-c2ccc(N3CCN(c4ccc(OCC5COC(Cn6cncn6)(c6ccc(Cl)cc6Cl)O5)cc4)CC3)cc2)c1=O` (stereo not drawn) [Itraconazole], in data set [1], the “Treatment-related TEAE Grade 3 or 4, related to the named study drug, patients” value is reported as 1 (4.8) n (%); the “Treatment-related TEAEs, related to the named study drug, patients” value is reported as 8 (38.1) n (%); the “Treatment-related TESAE, related to the named study drug, patients” value is 0 n (%).
With `CO[C@H]1/C=C/O[C@@]2(C)Oc3c(C)c(O)c4c(O)c(c(/C=N/N5CCN(C)CC5)c(O)c4c3C2=O)NC(=O)/C(C)=C\C=C\[C@H](C)[C@H](O)[C@@H](C)[C@@H](O)[C@@H](C)[C@H](OC(C)=O)[C@@H]1C` [Rifampin], in data set [2], the “Treatment-related TEAE Grade 3 or 4, related to the named study drug, patients” value was 1 (4.8) n (%); the “Treatment-related TEAEs, related to the named study drug, patients” value is given as 8 (38.1) n (%); the “Treatment-related TESAE, related to the named study drug, patients” value was 0 n (%).
